# According to patent US9346746B2, “R(+)-N-formyl-propargyl-aminoindan” (Teva Pharmaceutical Industries, Ltd., priority 2011, dated 2016):
# Where two headings read alike, the source gives them in different places.
# Tests used:
# [1] = for R(+)-N-formyl-PAI, % of Rasagiline: 90° C., air, 1 mg/ml
# Method: An additional series of degradation experiments was performed at 90° C. in order to achieve even higher degradation of Rasagiline in aqueous solutions.
# For this series the treatment time was 1 and 2 weeks, and phosphate-citrate buffer (pH=2.6) and phosphate buffer (pH=8.0) were used.
# The solutions were exposed to heat in an oven under an air atmosphere in amber glass vials closed with Teflon stoppers and covered with aluminum foil for protection from light.
# The samples were introduced into an oven pre-heated to 90° C. and held at this temperature for 7 or 14 days. After completion of the treatment the samples were refrigerated at 2-8° C. and analyzed.
# [2] = in vivo; cited from earlier work
# [3] = RH=100%, room temperature, 7 days
# [4] = 1 mg/ml, air, Ethanol, 78 °C, 168 hrs
# Method: The solutions were exposed to heating in oven under air atmosphere in amber glass vials closed with Teflon stoppers and covered with aluminum foil for protection from light. After completion of the treatment the samples were refrigerated at 2-8° C. and analyzed later using HPLC.
# [5] = room temperature, initial peroxide 3%
# Method: Then peroxide and water were added; complete dissolution of solid was achieved by shaking.
# After holding at room temperature for 10 minutes to 20 hrs (oxidation time), the solutions were diluted with mobile phase and analyzed by HPLC.
# [6] = melt phase, Air
# Method: Samples intended to degrade under an inert atmosphere were flushed with nitrogen for 5 minutes before closing with a stopper.
# The samples were introduced into a pre-heated oven and held at a constant temperature of 78 and 90° C. for 24, 72 or 137 hrs. After completion of the treatment the samples were refrigerated and analyzed.
smiles,measurement,setting,value
"C#CCN[C@@H]1CCc2ccccc21 [Rasagiline base, R(+)-N-propargyl-1-aminoindan]","R(+)-N-formyl-PAI, % of Rasagiline","[1]; Acetate buffer pH = 4.1, 1 week",0.05 % of Rasagiline
same,"R(+)-N-formyl-PAI, % of Rasagiline","[1]; Phosphate buffer pH = 6.0, 1 week",0.07 % of Rasagiline
same,"R(+)-N-formyl-PAI, % of Rasagiline","[1]; Phosphate buffer pH = 6.0, 2 weeks",0.16 % of Rasagiline
same,"R(+)-N-formyl-PAI, % of Rasagiline","[1]; Phosphate buffer pH = 8.0, 1 week",0.22 % of Rasagiline
same,"R(+)-N-formyl-PAI, % of Rasagiline","[1]; Phosphate buffer pH = 8.0, 2 weeks",0.19 % of Rasagiline
same,"R(+)-N-formyl-PAI, % of Rasagiline","[1]; Phosphate-citrate buffer 3.6, 1 week",0.13 % of Rasagiline
same,"R(+)-N-formyl-PAI, % of Rasagiline","[1]; Phosphate-citrate buffer 3.6, 2 weeks",0.11 % of Rasagiline
same,"R(+)-N-formyl-PAI, % of Rasagiline","[1]; Phosphate-citrate buffer pH = 2.6, 1 week",0.17 % of Rasagiline
same,"R(+)-N-formyl-PAI, % of Rasagiline","[1]; Phosphate-citrate buffer pH = 2.6, 2 weeks",0.26 % of Rasagiline
same,R(+)-N-formyl-PAI found in the solutions,"[1]; aqueous solutions at 90° C., summary statement",above 0.1 % area of Rasagiline
same,absolute bioavailability,[2],about 36%
same,R(+)-N-formyl-PAI after humidity stress,[3],not detected
same,"R(+)-N-formyl-PAI, % of Rasagiline",[4],<0.04 % of Rasagiline
same,"R(+)-N-formyl-PAI, % of Rasagiline",[5]; oxidation time 5:00 hr:min,0.17 % of Rasagiline
same,"R(+)-N-formyl-PAI, % of Rasagiline",[5]; oxidation time 20:00 hr:min,0.23 % of Rasagiline
same,"R(+)-N-formyl-PAI, % of Rasagiline","[6]; 78 deg. C., 24 hrs",0.14 % of Rasagiline
same,"R(+)-N-formyl-PAI, % of Rasagiline","[6]; 78 deg. C., 72 hrs",0.10 % of Rasagiline
same,"R(+)-N-formyl-PAI, % of Rasagiline","[6]; 90 deg. C., 24 hrs",0.08 % of Rasagiline
same,"R(+)-N-formyl-PAI, % of Rasagiline","[6]; 90 deg. C., 72 hrs",0.07 % of Rasagiline
same,"R(+)-N-formyl-PAI, % of Rasagiline","[6]; 90 deg. C., 137 hrs",0.07 % of Rasagiline
